# Legend:
# BRG-1 = biological target: T1, BRG-1 (Homo sapiens, UniProt P51532); assay: ATPase catalytic activity of BRG-1, ADP-Glo in vitro biochemical assay; conditions: ATPase catalytic activity, 30 nM BRG-1, 400 μM ATP, read-out: BRG1 IP50
# T1 construct: made in house; host or cells: High Five insect cells
# BRM = biological target: T2, BRM (Homo sapiens, UniProt P51531); assay: ATPase catalytic activity of BRM, ADP-Glo in vitro biochemical assay; conditions: ATPase catalytic activity, 30 nM BRM, 400 μM ATP, read-out: BRM IP50
# T2 construct: made in house; host or cells: High Five insect cells
# T2 sequence (P51531 whole entry): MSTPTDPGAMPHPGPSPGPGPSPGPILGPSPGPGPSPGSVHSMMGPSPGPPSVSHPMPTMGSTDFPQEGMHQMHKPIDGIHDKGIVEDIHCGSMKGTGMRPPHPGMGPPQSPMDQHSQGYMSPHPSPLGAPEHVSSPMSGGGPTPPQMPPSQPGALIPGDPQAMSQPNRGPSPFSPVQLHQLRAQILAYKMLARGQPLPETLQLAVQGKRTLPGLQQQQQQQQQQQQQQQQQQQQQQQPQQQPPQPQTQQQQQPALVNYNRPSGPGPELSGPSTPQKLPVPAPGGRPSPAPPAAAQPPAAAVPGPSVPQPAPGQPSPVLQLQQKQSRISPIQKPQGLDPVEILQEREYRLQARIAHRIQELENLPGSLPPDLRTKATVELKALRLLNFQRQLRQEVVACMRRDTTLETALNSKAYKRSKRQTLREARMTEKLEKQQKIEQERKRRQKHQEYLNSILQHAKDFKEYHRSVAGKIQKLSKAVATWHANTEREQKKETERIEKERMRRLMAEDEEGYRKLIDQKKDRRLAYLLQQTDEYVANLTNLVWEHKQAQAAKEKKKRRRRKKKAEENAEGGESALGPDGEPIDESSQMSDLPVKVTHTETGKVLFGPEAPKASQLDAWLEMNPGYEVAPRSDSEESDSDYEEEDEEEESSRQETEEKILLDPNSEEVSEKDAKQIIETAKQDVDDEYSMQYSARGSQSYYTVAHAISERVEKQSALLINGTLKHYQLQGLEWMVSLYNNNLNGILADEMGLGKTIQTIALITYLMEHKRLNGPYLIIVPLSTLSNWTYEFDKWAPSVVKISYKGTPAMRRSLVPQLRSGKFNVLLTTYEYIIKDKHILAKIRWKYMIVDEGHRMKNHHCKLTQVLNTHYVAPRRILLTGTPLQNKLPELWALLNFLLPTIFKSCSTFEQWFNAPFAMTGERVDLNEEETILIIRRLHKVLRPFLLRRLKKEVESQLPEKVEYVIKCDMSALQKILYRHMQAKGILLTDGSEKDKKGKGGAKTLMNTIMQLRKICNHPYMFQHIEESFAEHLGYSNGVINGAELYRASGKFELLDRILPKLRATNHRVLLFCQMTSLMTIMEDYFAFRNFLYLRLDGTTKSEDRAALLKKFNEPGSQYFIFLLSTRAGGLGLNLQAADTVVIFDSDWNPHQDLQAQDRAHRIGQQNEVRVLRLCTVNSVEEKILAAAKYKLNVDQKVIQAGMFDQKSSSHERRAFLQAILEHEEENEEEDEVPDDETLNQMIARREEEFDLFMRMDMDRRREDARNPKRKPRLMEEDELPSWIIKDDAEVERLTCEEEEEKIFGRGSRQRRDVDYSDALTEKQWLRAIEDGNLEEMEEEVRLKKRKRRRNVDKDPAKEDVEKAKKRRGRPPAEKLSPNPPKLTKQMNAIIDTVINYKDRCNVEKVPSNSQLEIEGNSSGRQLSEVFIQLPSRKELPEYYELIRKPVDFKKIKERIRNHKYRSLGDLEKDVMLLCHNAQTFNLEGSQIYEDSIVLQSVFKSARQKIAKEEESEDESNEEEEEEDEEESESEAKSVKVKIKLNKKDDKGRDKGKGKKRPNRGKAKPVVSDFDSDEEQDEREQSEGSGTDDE
# T1 sequence (P51532 whole entry): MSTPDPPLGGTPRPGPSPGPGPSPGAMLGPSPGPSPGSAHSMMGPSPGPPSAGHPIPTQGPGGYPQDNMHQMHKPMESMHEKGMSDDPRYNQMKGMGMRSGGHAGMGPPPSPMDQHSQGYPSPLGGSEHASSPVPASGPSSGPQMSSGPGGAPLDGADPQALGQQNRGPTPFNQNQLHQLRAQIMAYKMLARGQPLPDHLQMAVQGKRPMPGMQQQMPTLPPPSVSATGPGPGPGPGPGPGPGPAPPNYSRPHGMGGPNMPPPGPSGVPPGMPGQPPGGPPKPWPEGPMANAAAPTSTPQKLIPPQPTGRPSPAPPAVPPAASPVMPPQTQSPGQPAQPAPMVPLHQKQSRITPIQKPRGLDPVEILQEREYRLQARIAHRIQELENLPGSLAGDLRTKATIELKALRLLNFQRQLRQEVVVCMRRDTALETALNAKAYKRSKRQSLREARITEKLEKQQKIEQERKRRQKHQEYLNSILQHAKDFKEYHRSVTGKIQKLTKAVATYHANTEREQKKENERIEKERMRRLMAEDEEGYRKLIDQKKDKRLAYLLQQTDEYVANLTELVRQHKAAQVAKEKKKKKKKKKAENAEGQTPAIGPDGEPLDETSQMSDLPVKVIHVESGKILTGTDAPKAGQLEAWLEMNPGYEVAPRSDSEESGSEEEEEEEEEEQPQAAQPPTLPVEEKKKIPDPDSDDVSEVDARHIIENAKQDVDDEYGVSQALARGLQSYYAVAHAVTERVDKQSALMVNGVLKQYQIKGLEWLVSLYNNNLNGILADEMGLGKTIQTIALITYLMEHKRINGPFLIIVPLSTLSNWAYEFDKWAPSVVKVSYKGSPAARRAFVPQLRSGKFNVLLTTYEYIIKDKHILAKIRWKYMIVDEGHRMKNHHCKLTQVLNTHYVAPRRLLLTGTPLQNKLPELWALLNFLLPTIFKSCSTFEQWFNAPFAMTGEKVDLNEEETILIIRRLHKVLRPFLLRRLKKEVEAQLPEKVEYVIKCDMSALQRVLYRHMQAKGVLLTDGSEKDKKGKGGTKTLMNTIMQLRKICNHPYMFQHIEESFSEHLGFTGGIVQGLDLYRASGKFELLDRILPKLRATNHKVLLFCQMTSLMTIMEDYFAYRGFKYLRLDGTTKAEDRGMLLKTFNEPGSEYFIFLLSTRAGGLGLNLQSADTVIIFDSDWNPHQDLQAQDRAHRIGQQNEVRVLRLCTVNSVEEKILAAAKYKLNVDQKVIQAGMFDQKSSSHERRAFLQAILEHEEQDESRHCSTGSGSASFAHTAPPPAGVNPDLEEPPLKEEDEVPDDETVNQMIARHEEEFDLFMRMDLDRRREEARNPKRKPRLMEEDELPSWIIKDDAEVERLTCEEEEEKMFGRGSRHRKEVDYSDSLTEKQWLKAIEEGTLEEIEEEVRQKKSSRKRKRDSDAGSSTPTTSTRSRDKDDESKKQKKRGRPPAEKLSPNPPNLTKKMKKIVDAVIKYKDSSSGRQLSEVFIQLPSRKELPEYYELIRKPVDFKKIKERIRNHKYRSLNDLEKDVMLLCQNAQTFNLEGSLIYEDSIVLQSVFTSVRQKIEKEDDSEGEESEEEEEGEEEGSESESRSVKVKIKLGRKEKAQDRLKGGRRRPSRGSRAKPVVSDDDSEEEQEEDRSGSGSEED
IC50 (BRG-1) [nM],IC50 (BRM) [nM],SMILES
> 100,> 100,CN(C)[C@H]1CCN(c2cccc(-c3csc(NC(=O)CNC(=O)c4ccn(S(C)(=O)=O)c4)n3)n2)CC1(F)F [Compound 757]
< 10,< 10,COC[C@H](NC(=O)c1ccn(S(C)(=O)=O)c1)C(=O)Nc1nc(-c2cc(F)c3c(c2)CCN3C)cs1 [Compound 758]
> 10,> 10,COC[C@@H](NC(=O)c1ccn(S(C)(=O)=O)c1)C(=O)Nc1nc(-c2cc(F)c3c(c2)CCN3C)cs1 [Compound 759]
> 100,> 100,CN[C@H]1CCN(c2cccc(-c3csc(NC(=O)CNC(=O)c4ccn(S(C)(=O)=O)c4)n3)n2)CC1(F)F [Compound 760]
> 10,> 10,CN(C)[C@@H]1CCN(c2cccc(-c3csc(NC(=O)CNC(=O)c4ccn(S(C)(=O)=O)c4)n3)n2)CC1(F)F [Compound 762]
< 10,< 10,"CN[C@@H]1CCN(c2cccc(-c3csc(NC(=O)CNC(=O)c4ccn(S(C)(=O)=O)c4)n3)n2)CC1(F)F [Compound 763, N-[2-[[4-[6-[(4R)-3,3-difluoro-4-(methylamino)-1-piperidyl]-2-pyridyl]thiazol-2-yl]amino]-2-oxo-ethyl]-1-methylsulfonyl-pyrrole-3-carboxamide]"
< 10,< 10,CS(=O)(=O)n1ccc(C(=O)NCC(=O)Nc2nc(-c3cccc(N4CC[C@H]5OCC[C@@H]5C4)n3)cs2)c1 [Compound 764]
> 100,> 10,"CCCOC(=O)N1CCC(c2csc(NC(=O)CNC(=O)c3ccn(S(C)(=O)=O)c3)n2)CC1 [Compound 765, propyl 4-[2-[[2-[(1-methylsulfonylpyrrole-3-carbonyl)amino]acetyl]amino]thiazol-4-yl]piperidine-1-carboxylate]"
< 10,< 10,CS(=O)(=O)n1ccc(C(=O)NCC(=O)Nc2nc(-c3cccc(N4CC[C@@H]5OCC[C@H]5C4)n3)cs2)c1 [Compound 766]
> 10,< 10,C[C@@H]1CN(c2cccc(-c3csc(NC(=O)[C@H](C)NC(=O)c4ccn(S(C)(=O)=O)c4)n3)n2)C[C@H](C)O1 [Compound 767]
> 100,> 100,C[C@@H]1CN(c2cccc(-c3csc(NC(=O)[C@@H](C)NC(=O)c4ccn(S(C)(=O)=O)c4)n3)n2)C[C@H](C)O1 [Compound 768]
> 10,> 10,C[C@@H]1CN(c2cccc(-c3csc(NC(=O)[C@H](C)NC(=O)c4ccn(C(C)(C)C)c4)n3)n2)C[C@H](C)O1 [Compound 769]
> 10,> 10,CCCOC(=O)N1CCC[C@H](c2csc(NC(=O)CNC(=O)c3ccn(S(C)(=O)=O)c3)n2)C1 [Compound 771]
< 10,< 10,COC[C@H](NC(=O)c1ccn(S(C)(=O)=O)c1)C(=O)Nc1nc(-c2cccc(N3CC[C@H]4COC[C@@H]4C3)n2)cs1 [Compound 772]
< 10,< 10,COC[C@H](NC(=O)c1ccn(S(C)(=O)=O)c1)C(=O)Nc1nc(-c2cccc(N3CC[C@@H]4COC[C@H]4C3)n2)cs1 [Compound 773]
< 10,< 10,COC[C@H](NC(=O)c1ccn(S(C)(=O)=O)c1)C(=O)Nc1nc(-c2cccc(N3CC[C@H]4OCC[C@@H]4C3)n2)cs1 [Compound 774]
> 10,< 10,COC[C@H](NC(=O)c1ccn(S(C)(=O)=O)c1)C(=O)Nc1nc(-c2cccc(N3CC[C@@H]4OCC[C@H]4C3)n2)cs1 [Compound 775]
> 10,> 10,"CS(=O)(=O)n1ccc(C(=O)NCC(=O)Nc2nc(-c3cccc(C4CCCOC4)c3)cs2)c1 (stereo not drawn) [Compound 776, 1-methylsulfonyl-N-[2-oxo-2-[[4-(3-tetrahydropyran-3-ylphenyl)thiazol-2-yl]amino]ethyl]pyrrole-3-carboxamide]"
> 10,> 10,C[C@@H]1CN(c2cccc(-c3csc(NC(=O)CNC(=O)c4ccn(C(C)(C)C)n4)n3)c2)C[C@H](C)O1 [Compound 777]
> 100,> 10,C[C@@H]1CN(c2cccc(-c3csc(NC(=O)CNC(=O)c4cn(C(C)(C)CO)cn4)n3)n2)C[C@H](C)O1 [Compound 778]
> 100,> 100,Cn1ccc(-c2cccc(-c3csc(NC(=O)CNC(=O)c4cn(C5(C#N)CC5)cn4)n3)c2)n1 [Compound 780]
> 100,> 10,C[C@@H]1CN(c2cccc(-c3csc(NC(=O)CNC(=O)c4cn(C5(C#N)CC5)cn4)n3)n2)C[C@H](C)O1 [Compound 781]
> 100,> 100,Cn1ccc2ccc(-c3csc(NC(=O)CNC(=O)c4ncn(C56CC(C5)C6)n4)n3)cc2c1=O [Compound 782]
> 10,> 10,CN1CCOc2ccc(-c3csc(NC(=O)CNC(=O)c4cn(C(C)(C)C#N)cn4)n3)cc21 [Compound 784]

# More lines, now with the values behind:
SMILES,IC50 (BRG-1) [nM],IC50 (BRM) [nM]
CS(=O)(=O)n1ccc(C(=O)NCC(=O)Nc2nc(-c3ccc4c(c3)C(F)(F)CC4)cs2)c1 [Compound 720],> 10,> 10
COC[C@H](NC(=O)c1ccn(S(C)(=O)=O)c1)C(=O)Nc1nc(-c2cc(Cl)cc(C#N)c2)cs1 [Compound 721],> 10,> 10
CS(=O)(=O)n1ccc(C(=O)NCC(=O)Nc2nc(-c3cc(Cl)cc(C#N)c3)cs2)c1 [Compound 722],> 10,> 10
COC[C@H](NC(=O)c1ccn(S(C)(=O)=O)c1)C(=O)Nc1nc(-c2cc(F)cc(OC)c2)cs1 [Compound 726],< 10,< 10
CC(C)(C)n1ccc(C(=O)NCC(=O)Nc2nc(-c3cccc(N4CC[C@@H]5COC[C@H]5C4)n3)cs2)c1 [Compound 727],> 10,< 10
COC[C@H](NC(=O)c1ccn(S(C)(=O)=O)c1)C(=O)Nc1nc(-c2ccc3c(c2)OC(F)(F)O3)cs1 [Compound 728],> 10,> 10
COC[C@H](NC(=O)c1ccn(C2(C#N)CCC2)c1)C(=O)Nc1nc(-c2cccc(N3C[C@@H](C)O[C@@H](C)C3)n2)cs1 [Compound 730],< 10,< 10
C[C@@H]1CN(c2cccc(-c3csc(NC(=O)CNC(=O)c4ccn(C5(C#N)CCC5)c4)n3)n2)C[C@H](C)O1 [Compound 731],< 10,< 10
COC[C@H](NC(=O)c1ccn(S(C)(=O)=O)c1)C(=O)Nc1nc(-c2ccc3c(c2)C(F)(F)CC3)cs1 [Compound 732],> 10,> 10
COC[C@H](NC(=O)c1ccn(S(C)(=O)=O)c1)C(=O)Nc1nc(-c2cc(F)c3c(c2)C(F)(F)CC3)cs1 [Compound 733],< 10,< 10
COC[C@H](NC(=O)c1ccn(S(C)(=O)=O)c1)C(=O)Nc1nc(-c2cc(C)cc(N3C[C@@H](C)O[C@@H](C)C3)n2)cs1 [Compound 734],< 10,< 10
COC[C@H](NC(=O)c1ccn(S(C)(=O)=O)c1)C(=O)Nc1nc(-c2ccc3c(c2)CCN3C)cs1 [Compound 735],> 10,> 10
C[C@@H]1CN(c2cccc(-c3csc(NC(=O)CNC(=O)c4ccn(C5(CF)COC5)c4)n3)n2)C[C@H](C)O1 [Compound 736],< 10,< 10
C[C@@H]1CN(c2cccc(-c3csc(NC(=O)CNC(=O)c4ccn(C5(C(F)F)CC5)c4)n3)n2)C[C@H](C)O1 [Compound 737],< 10,< 10
COC[C@H](NC(=O)c1ccn(S(C)(=O)=O)c1)C(=O)Nc1nc(-c2cc(F)cc(-c3cnn(C)n3)c2)cs1 [Compound 738],< 10,< 10
COC[C@H](NC(=O)c1ccn(C(C)(C)C#N)c1)C(=O)Nc1nc(-c2cc(F)cc(-c3cnn(C)n3)c2)cs1 [Compound 739],< 10,< 10
COC[C@H](NC(=O)c1ccn(C(C)(C)C#N)c1)C(=O)Nc1nc(-c2cc(C)cc(N3C[C@@H](C)O[C@@H](C)C3)n2)cs1 [Compound 740],< 10,< 10
CS(=O)(=O)n1ccc(C(=O)NCC(=O)Nc2nc(-c3cccc(C45CCOCC4C5)c3)cs2)c1 (stereo not drawn) [Compound 743],> 10,> 10
CC(C)(C)n1ccc(C(=O)NCC(=O)Nc2nc(-c3cccc(C45CCOCC4C5)c3)cs2)c1 (stereo not drawn) [Compound 744],> 10,> 10
CS(=O)(=O)n1ccc(C(=O)NCC(=O)Nc2nc(-c3cccc(N4CC[C@H]5COC[C@@H]5C4)n3)cs2)c1 [Compound 745],< 10,< 10
CS(=O)(=O)n1ccc(C(=O)NCC(=O)Nc2nc(-c3cccc(N4CC[C@@H]5COC[C@H]5C4)n3)cs2)c1 [Compound 746],< 10,< 10
C[C@@H]1CN(c2cccc(-c3csc(NC(=O)CNC(=O)c4ccn(C(C)(C)C(F)F)c4)n3)n2)C[C@H](C)O1 [Compound 748],< 10,< 10
CC(F)C(C)(F)n1ccc(C(=O)NCC(=O)Nc2nc(-c3cccc(N4C[C@@H](C)O[C@@H](C)C4)n3)cs2)c1 (stereo partly drawn) [Compound 749],> 100,> 100
"CS(=O)(=O)n1ccc(C(=O)NCC(=O)Nc2nc(-c3cccc(C45CCOCC4C5)n3)cs2)c1 (stereo not drawn) [Compound 750, 1-methylsulfonyl-N-[2-[[4-[6-(3-oxabicyclo[4.1.0]heptan-6-yl)-2-pyridyl]thiazol-2-yl]amino]-2-oxo-ethyl]pyrrole-3-carboxamide]",> 10,> 10
CC(C)(C)n1ccc(C(=O)NCC(=O)Nc2nc(-c3cccc(C45CCOCC4C5)n3)cs2)c1 (stereo not drawn) [Compound 751],> 10,> 10
COC[C@H](NC(=O)c1ccn(S(C)(=O)=O)c1)C(=O)Nc1nc(-c2cccc([C@]34CCOC[C@H]3C4)n2)cs1 [Compound 755],> 10,> 10
COC[C@H](NC(=O)c1ccn(S(C)(=O)=O)c1)C(=O)Nc1nc(-c2cccc([C@@]34CCOC[C@@H]3C4)n2)cs1 [Compound 756],> 100,> 10

# — patent publication US20230079819A1, “COMPOUNDS AND USES THEREOF” (Foghorn Therapeutics Inc., priority 2019, published 2023)
